Assays:
[1] = test system: Botryotinia fuckeliana (Botrytis cinerea); experiment: Botryotinia fuckeliana (Botrytis cinerea) liquid culture (gray mould); assay type: cell-based; details: 200 ppm in the formulation, Vogels broth, 24° C., photometric, 3-4 days after application, vs untreated control, read-out: disease control (inhibition of growth)
Method: (§1) Botryotinia fuckeliana (Botrytis cinerea) Liquid Culture (Gray Mould) Conidia of the fungus from cryogenic storage are directly mixed into nutrient broth (Vogels broth). After placing a (DMSO) solution of test compound into a microtiter plate (96-well format), the nutrient broth containing the fungal spores is added. The test plates are incubated at 24° C. and the inhibition of growth is determined photometrically 3-4 days after application.

[2] = test system: Glomerella lagenarium (Colletotrichum lagenarium); experiment: Glomerella lagenarium (Colletotrichum lagenarium) / liquid culture (anthracnose); assay type: cell-based; details: Colletotrichum orbiculare; 200 ppm in the formulation; PDB broth, 24° C., photometric, 3 to 4 days after application; vs untreated control; read-out: disease control (inhibition of growth)
Method: as §1, with “Glomerella lagenarium (Colletotrichum lagenarium)/Liquid” for “Botryotinia fuckeliana (Botrytis cinerea) Liquid”, “(Anthracnose)” for “(Gray Mould)”, “(PDB potato dextrose” for “(Vogels”, “measured” for “determined”, “3 to 4” for “3-4”

[3] = test system: Monographella nivalis (Microdochium nivale); experiment: Monographella nivalis (Microdochium nivale) / liquid culture (foot rot cereals); assay type: cell-based; details: 200 ppm in the formulation, PDB broth, 24° C., photometric, 4-5 days after application, vs untreated control, read-out: disease control (inhibition of growth)
Method: as §1, with “Monographella nivalis (Microdochium nivale)/Liquid” for “Botryotinia fuckeliana (Botrytis cinerea) Liquid”, “(Foot Rot Cereals)” for “(Gray Mould)”, “(PDB potato dextrose” for “(Vogels”, “4-5” for “3-4”

[4] = test system: Mycosphaerella arachidis (Cercospora arachidicola); experiment: Mycosphaerella arachidis (Cercospora arachidicola) / liquid culture (early leaf spot); assay type: cell-based; details: 200 ppm in the formulation, PDB broth, 24° C., photometric, 4-5 days after application, vs untreated control, read-out: disease control (inhibition of growth)
Method: as §1, with “Mycosphaerella arachidis (Cercospora arachidicola)/Liquid” for “Botryotinia fuckeliana (Botrytis cinerea) Liquid”, “(Early Leaf Soot)” for “(Gray Mould)”, “(PDB potato dextrose” for “(Vogels”, “4-5” for “3-4”

[5] = test system: Mycosphaerella graminicola (Septoria tritici); experiment: Mycosphaerella graminicola (Septoria tritici) / liquid culture (Septoria blotch); assay type: cell-based; details: Zymoseptoria tritici; 200 ppm in the formulation; PDB broth, 24° C., photometric, 4 to 5 days after application; vs untreated control; read-out: disease control (inhibition of growth)
Method: as §1, with “Mycosphaerella graminicola (Septoria tritici)/Liquid” for “Botryotinia fuckeliana (Botrytis cinerea) Liquid”, “(Septoria Blotch)” for “(Gray Mould)”, “(PDB potato dextrose” for “(Vogels”, “4 to 5” for “3-4”

[6] = test system: Phaeosphaeria nodorum (Setoria nodorum); experiment: Phaeosphaeria nodorum (Septoria nodorum) / wheat / leaf disc preventative (glume blotch); assay type: in vivo; details: Parastagonospora nodorum, foliar, 200 ppm in the formulation, wheat leaf segments cv. Kanzler, 5-7 days after application, vs untreated control, read-out: disease control
Method: Phaeosphaeria nodorum (Setoria nodorum)/Wheat/Leaf Disc Preventative (Glume Blotch) Wheat leaf segments cv. Kanzler are placed on agar in a multiwell plate (24-well format) and sprayed with the formulated test compound diluted in water. The leaf disks are inoculated with a spore suspension of the fungus 2 days after application. The inoculated test leaf disks are incubated at 20° C. and 75% rh under a light regime of 12 h light/12 h darkness in a climate cabinet and the activity of a compound is assessed as percent disease control compared to untreated when an appropriate level of disease damage appears in untreated check leaf disks (5-7 days after application).

[7] = test system: Puccinia recondita f. so. tritici; experiment: Puccinia recondita f. sp. tritici / wheat / leaf disc preventative (brown rust); assay type: in vivo; details: foliar, 200 ppm in the formulation, wheat leaf segments cv. Kanzler, 7-9 days after application, vs untreated control, read-out: disease control
Method: Puccinia recondita f. so. tritici/Wheat/Leaf Disc Preventative (Brown Rust)
Wheat leaf segments cv. Kanzler are placed on agar in multiwell plates (24-well format) and sprayed with the formulated test compound diluted in water. The leaf disks are inoculated with a spore suspension of the fungus 1 day after application. The inoculated leaf segments are incubated at 19° C. and 75% rh under a light regime of 12 h light/12 h darkness in a climate cabinet and the activity of a compound is assessed as percent disease control compared to untreated when an appropriate level of disease damage appears in untreated check leaf segments (7-9 days after application).

COc1ccnc(C(=O)N[C@@H](C)C(=O)OC(C)C(C)n2ccc3c(Br)ccc(F)c32)c1O (stereo partly drawn) [I.ab.001, [2-(4-bromo-7-fluoro-indol-1-yl)-1-methyl-propyl] (2S)-2-[(3-hydroxy-4-methoxy-pyridine-2-carbonyl)amino]propanoate]
≥ 80%: inhibition at 200 ppm [1] | inhibition at 200 ppm [2] | inhibition at 200 ppm [3] | inhibition at 200 ppm [4] | inhibition at 200 ppm [5] | pest or weed control at 200 ppm [6] | pest or weed control at 200 ppm [7]

COc1ccnc(C(=O)N[C@@H](C)C(=O)OC(C)C(C)n2ncc3ccccc32)c1O (stereo partly drawn) [I.ae.001, (2-indazol-1-yl-1-methyl-propyl) (2S)-2-[(3-hydroxy-4-methoxy-pyridine-2-carbonyl)amino]propanoate]
≥ 80%: inhibition at 200 ppm [4] | inhibition at 200 ppm [5] | pest or weed control at 200 ppm [7]

COc1ccnc(C(=O)N[C@@H](C)C(=O)OC(C)C(C)n2cc(C#N)c(-c3cccc(Cl)c3Cl)c2)c1O (stereo partly drawn) [I.ag.001, [2-[3-cyano-4-(2,3-dichlorophenyl)pyrrol-1-yl]-1-methyl-propyl] (2S)-2-[(3-hydroxy-4-methoxy-pyridine-2-carbonyl)amino] propanoate]
≥ 80%: inhibition at 200 ppm [1] | inhibition at 200 ppm [2] | inhibition at 200 ppm [3] | inhibition at 200 ppm [5]

COc1ccnc(C(=O)N[C@@H](C)C(=O)OC(C)C(C)n2cc(C#N)c(-c3ccccc3Cl)c2)c1O (stereo partly drawn) [I.ah.001, [2-[3-(2-chlorophenyl)-4-cyano-pyrrol-1-yl]-1-methyl-propyl] (2S)-2-[(3-hydroxy-4-methoxy-pyridine-2-carbonyl)amino]propanoate]
≥ 80%: inhibition at 200 ppm [1] | inhibition at 200 ppm [2] | inhibition at 200 ppm [3] | inhibition at 200 ppm [4] | inhibition at 200 ppm [5]

COc1ccnc(C(=O)N[C@@H](C)C(=O)OC(C)C(C)c2sc3ccc(Cl)cc3c2C)c1O (stereo partly drawn) [I.at.001, [2-(5-chloro-3-methyl-benzothiophen-2-yl)-1-methyl-propyl] (2S)-2-[(3-hydroxy-4-methoxy-pyridine-2-carbonyl)amino]propanoate]
≥ 80%: inhibition at 200 ppm [2] | inhibition at 200 ppm [3] | inhibition at 200 ppm [4] | inhibition at 200 ppm [5] | pest or weed control at 200 ppm [6] | pest or weed control at 200 ppm [7]

COc1ccnc(C(=O)N[C@@H](C)C(=O)OC(C)C(C)n2ccc3cc(Cl)c(Cl)cc32)c1O (stereo partly drawn) [I.au.001, [2-(5,6-dichloroindol-1-yl)-1-methyl-propyl] (2S)-2-[(3-hydroxy-4-methoxy-pyridine-2-carbonyl)amino] propanoate]
≥ 80%: inhibition at 200 ppm [1] | inhibition at 200 ppm [2] | inhibition at 200 ppm [3] | inhibition at 200 ppm [4] | inhibition at 200 ppm [5] | pest or weed control at 200 ppm [7]

COc1ccnc(C(=O)N[C@@H](C)C(=O)OC(C)C(C)n2ccc3cc(F)c(Cl)cc32)c1O (stereo partly drawn) [I.av.001, [2-(6-chloro-5-fluoro-indol-1-yl)-1-methyl-propyl] (2S)-2-[(3-hydroxy-4-methoxy-pyridine-2-carbonyl)amino]propanoate]
≥ 80%: inhibition at 200 ppm [2] | inhibition at 200 ppm [4] | inhibition at 200 ppm [5] | pest or weed control at 200 ppm [7]

COc1ccnc(C(=O)N[C@@H](C)C(=O)OC(C)C(C)n2ccc3cc(F)c(Br)cc32)c1O (stereo partly drawn) [I.aw.001, [2-(6-bromo-5-fluoro-indol-1-yl)-1-methyl-propyl] (2S)-2-[(3-hydroxy-4-methoxy-pyridine-2-carbonyl)amino]propanoate]
≥ 80%: inhibition at 200 ppm [2] | inhibition at 200 ppm [4] | inhibition at 200 ppm [5] | pest or weed control at 200 ppm [7]

COc1ccnc(C(=O)N[C@@H](C)C(=O)OC(C)C(C)n2ccc3cc(F)cc(F)c32)c1O (stereo partly drawn) [I.ay.001, [2-(5,7-difluoroindol-1-yl)-1-methyl-propyl] (2S)-2-[(3-hydroxy-4-methoxy-pyridine-2-carbonyl)amino] propanoate]
≥ 80%: inhibition at 200 ppm [2] | inhibition at 200 ppm [3] | inhibition at 200 ppm [4] | inhibition at 200 ppm [5] | pest or weed control at 200 ppm [6] | pest or weed control at 200 ppm [7]

COc1ccnc(C(=O)N[C@@H](C)C(=O)OC(C)C(C)n2ccc3c(Cl)ccc(Cl)c32)c1OC(C)=O (stereo partly drawn) [I.bb.041, [2-(4,7-dichloroindol-1-yl)-1-methyl-propyl] (2S)-2-[(3-acetoxy-4-methoxy-pyridine-2-carbonyl)amino] propanoate]
≥ 80%: inhibition at 200 ppm [2] | inhibition at 200 ppm [3] | inhibition at 200 ppm [4] | inhibition at 200 ppm [5] | pest or weed control at 200 ppm [6] | pest or weed control at 200 ppm [7]

COc1ccnc(C(=O)N[C@@H](C)C(=O)OC(C)C(C)c2ccc3ccccc3n2)c1O (stereo partly drawn) [I.s.001, [1-methyl-2-(2-quinolyl)propyl] (2S)-2-[(3-hydroxy-4-methoxy-pyridine-2-carbonyl)amino]propanoate]
≥ 80%: inhibition at 200 ppm [1] | inhibition at 200 ppm [2] | inhibition at 200 ppm [3] | inhibition at 200 ppm [4] | inhibition at 200 ppm [5] | pest or weed control at 200 ppm [7]

COc1ccnc(C(=O)N[C@@H](C)C(=O)OC(C)C(C)n2ccc3ccc(F)cc32)c1O (stereo partly drawn) [I.v.001, [2-(6-fluoroindol-1-yl)-1-methyl-propyl] (2S)-2-[(3-hydroxy-4-methoxy-pyridine-2-carbonyl)amino]propanoate]
≥ 80%: inhibition at 200 ppm [1] | inhibition at 200 ppm [2] | inhibition at 200 ppm [3] | inhibition at 200 ppm [4] | inhibition at 200 ppm [5] | pest or weed control at 200 ppm [7]

COc1ccnc(C(=O)N[C@@H](C)C(=O)OC(C)C(C)n2ccc3cc(F)ccc32)c1O (stereo partly drawn) [I.w.001, [2-(5-fluoroindol-1-yl)-1-methyl-propyl] (2S)-2-[(3-hydroxy-4-methoxy-pyridine-2-carbonyl)amino]propanoate]
≥ 80%: inhibition at 200 ppm [1] | inhibition at 200 ppm [2] | inhibition at 200 ppm [3] | inhibition at 200 ppm [4] | inhibition at 200 ppm [5] | pest or weed control at 200 ppm [7]

COc1ccnc(C(=O)N[C@@H](C)C(=O)OC(C)C(C)n2ccc3ccc(Cl)cc32)c1O (stereo partly drawn) [I.x.001, [2-(6-chloroindol-1-yl)-1-methyl-propyl] (2S)-2-[(3-hydroxy-4-methoxy-pyridine-2-carbonyl)amino]propanoate]
≥ 80%: inhibition at 200 ppm [1] | inhibition at 200 ppm [2] | inhibition at 200 ppm [4] | inhibition at 200 ppm [5] | pest or weed control at 200 ppm [7]

COc1ccnc(C(=O)N[C@@H](C)C(=O)OC(C)C(C)n2ccc3ccc(C(F)(F)F)cc32)c1O (stereo partly drawn) [I.z.001, [1-methyl-2-[6-(trifluoromethyl)indol-1-yl]propyl] (2S)-2-[(3-hydroxy-4-methoxy-pyridine-2-carbonyl)amino]propanoate]
≥ 80%: inhibition at 200 ppm [1] | inhibition at 200 ppm [2] | inhibition at 200 ppm [3] | inhibition at 200 ppm [4] | inhibition at 200 ppm [5] | pest or weed control at 200 ppm [6] | pest or weed control at 200 ppm [7]

Reference: patent US11629138B2, “Microbiocidal picolinamide derivatives” (Syngenta Participations AG, priority 2017, dated 2023)
